In general, EC50 refers to the concentration at which the effect is half-maximal. A lower EC50 goes with an effect from little substance. The term IC50 denotes the point on the concentration scale where inhibition reaches its midpoint. One may read the Ki as a measure of affinity in units of concentration, obtained from inhibition or displacement. Higher therefore signals a looser hold on the target.

The test system of one assay is FM3A. Description: Inhibitory activity against mammalian FM3A cell. The class given is functional, cell-based. As to conditions: Mus musculus.
Assay [1] has as its target Adenosylhomocysteinase (Plasmodium falciparum 3D7, UniProt P50250). Description: Inhibitory activity against Plasmodium falciparum S-adenosyl-L-homocysteine hydrolase.
The target of assay [2] is Adenosylhomocysteinase (Homo sapiens, UniProt P23526). Description: Inhibitory activity against human S-adenosyl-L-homocysteine hydrolase.
Adenosylhomocysteinase (Homo sapiens, UniProt P23526), sequence (P23526 whole entry): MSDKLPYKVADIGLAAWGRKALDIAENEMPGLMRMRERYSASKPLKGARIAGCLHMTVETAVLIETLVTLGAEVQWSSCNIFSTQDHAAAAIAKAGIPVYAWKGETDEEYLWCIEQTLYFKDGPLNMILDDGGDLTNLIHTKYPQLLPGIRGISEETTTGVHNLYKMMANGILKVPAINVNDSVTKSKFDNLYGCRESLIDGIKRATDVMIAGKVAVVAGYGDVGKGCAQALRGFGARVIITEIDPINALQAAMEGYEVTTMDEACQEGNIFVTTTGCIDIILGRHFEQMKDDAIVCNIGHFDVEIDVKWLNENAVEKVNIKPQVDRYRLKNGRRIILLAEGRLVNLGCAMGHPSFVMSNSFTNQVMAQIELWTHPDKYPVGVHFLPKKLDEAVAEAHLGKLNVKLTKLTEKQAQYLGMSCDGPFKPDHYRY
Another assay concerns Plasmodium falciparum. Description: Inhibitory activity against Plasmodium falciparum. The class given is functional, organism-based.

Adenosylhomocysteinase (Plasmodium falciparum 3D7, UniProt P50250), sequence (P50250 whole entry): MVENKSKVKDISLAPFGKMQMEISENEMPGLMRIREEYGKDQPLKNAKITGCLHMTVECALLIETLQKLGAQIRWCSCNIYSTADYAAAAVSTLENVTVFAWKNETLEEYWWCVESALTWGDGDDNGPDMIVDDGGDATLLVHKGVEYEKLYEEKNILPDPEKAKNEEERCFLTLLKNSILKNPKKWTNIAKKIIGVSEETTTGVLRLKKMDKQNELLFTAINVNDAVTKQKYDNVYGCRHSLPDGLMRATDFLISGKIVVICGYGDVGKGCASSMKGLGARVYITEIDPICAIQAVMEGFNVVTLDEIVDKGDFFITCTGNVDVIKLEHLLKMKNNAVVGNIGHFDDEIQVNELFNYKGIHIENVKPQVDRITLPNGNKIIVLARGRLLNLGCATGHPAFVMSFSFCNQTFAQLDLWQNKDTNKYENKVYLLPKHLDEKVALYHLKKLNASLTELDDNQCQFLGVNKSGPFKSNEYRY

Turning to `Nc1nc(F)nc2c1ncn2[C@@H]1C[C@H](O)[C@@H](O)[C@H]1O`, the EC50 was 7.2 µM in the assay with FM3A and 7.4 µM in the assay on Plasmodium falciparum. Also, the IC50 against Adenosylhomocysteinase [1] came out at 13 µM; against Adenosylhomocysteinase [2], 63 µM. In addition, the inhibition constant Ki was determined as 480 nM at Adenosylhomocysteinase [1] and 7.9 µM at Adenosylhomocysteinase [2].
In the case of `Nc1ncnc2c1ncn2[C@@H]1C[C@H](O)[C@@H](O)[C@H]1O` [NORARISTEROMYCIN], the EC50 is 0.072 µM with FM3A and 7.4 µM with Plasmodium falciparum. In addition, the IC50 against Adenosylhomocysteinase [1] was 3.1 µM; against Adenosylhomocysteinase [2], 1.1 µM. In addition, the values for the inhibition constant Ki on Adenosylhomocysteinase [1] and on Adenosylhomocysteinase [2] were 180 nM and 0.16 µM, respectively.

For the origin of these results see ChEMBL document CHEMBL1136352, “Synthesis of 2-fluoronoraristeromycin and its inhibitory activity against Plasmodium falciparum S-adenosyl-L-homocysteine hydrolase” (Bioorg Med Chem Lett, 2003).
